The record followed here is US20170165259A1, “COMBINED MODULATION OF IRE1” (THE REGENTS OF THE UNIVERSITY OF CALIFORNIA, priority 2014, published 2017).

Holding throughout (type): cell-based, rat
Assay [1] concerns endogenous IRE1α. As to the kind of experiment: XBP1 mRNA splicing in INS-1 cells under ER stress. To be noted: thapsigargin (Tg) 6 nM. How it is done: (§1) FIGS. 5A-5E. […] (FIG. 5C) EtBr-stained agarose gel of XBP1 complementary DNA (cDNA) amplicons from the INS-1 cells described in (B).
(§2) To further explore how IRE1α modulators affect the kinase and RNase activities of endogenous IRE1α under ER stress, in vivo studies using INS-1 rat insulinoma cell lines, which are derived from insulin-producing pancreatic β-cell tumors and contain large well-developed ERs, were conducted.

For the next assay, the system named is INS-1 cells. As to the kind of experiment: Annexin V apoptosis of INS-1 cells under ER stress. The procedure:
FIGS. 19A-19D. KIRA6 inhibits Terminal UPR outputs of IRE1α to protect against ER stress-induced apoptosis. […] (FIG. 19B) Q-PCR for Ins1 mRNA in INS-1 IRE1α (WT) cells treated with Dox (5 ng/ml)−/+STF-083010 (50 M) over the indicated timecourse. (FIG. 19C) Annexin V staining of INS-1 cells after 72 hr with indicated [Tm]−/+STF-083010 (50 M). (FIG. 19D) Annexin V staining of INS-1 cells after 72 hr with Tm (0.2 μg/ml), STF-083010 (1 or 5 M), and KIRA6 (0.05 M) as indicated. Data plotted as mean+/−SD. P-values: *<0.05, **<0.01, ***<0.005.
For assaying apoptosis by Annexin V staining, cells were plated in 12-well plates overnight. Cells were then treated with various reagents for indicated time periods. On the day of flow cytometry analysis, cells were trypsinized and washed in PBS and resuspended in Annexin V binding buffer with Annexin-V FITC (BD Pharmingen™). Flow cytometry was performed on a Becton Dickinson LSRII flow cytometer.

The test system of the next assay is IRE1α (WT). As to the kind of experiment: Dox-induced IRE1α (WT) hyperactivation in INS-1 stable lines. To be noted: STF-083010 at 50 µM. An excerpt:
These aforementioned terminal UPR signaling events can be completely mimicked simply by controlled over-expression of IRE1α, in the complete absence of upstream ER stress. Tetracycline-inducible isogenic INS-1 stable cell lines expressing WT IRE1α were generated. Induced with doxycycline (dox) the transgenic IRE1α proteins oligomerize, spontaneously trans-autophosphorylate and trigger XBP1 mRNA splicing. The transgenic systems are finely tuneable, with increasing [Dox] causing progressively greater IRE1α induction (the transgenic IRE1α protein is Myc-tagged). Phospho/Myc IRE1α ratios are finely controllable (and measureable) with increasing [Dox], as is XBP1 mRNA splicing. […] These include reduction of miR-17 and Ins1 mRNA, induction of CHOP mRNA, induction and proteolytic cleavage of caspases 1,2, and 3, and apoptosis as measured by Annexin-V staining. […]
For protein analysis, cells were lysed in M-PER buffer (Thermo Scientific) plus complete EDTA-free protease inhibitor (Roche) and phosphatase inhibitor cocktail (Sigma). The concentration of samples was determined using BCA Protein Assay (Thermo). […] Antibody binding was detected by using near-infrared-dye-conjugated secondary antibodies (Licor) on the LI-COR Odyssey scanner or visualized by capturing on a CL-XPosure film using ECL SuperSignal West Dura Extended Duration Substrate (both from Thermo Scientific).

For assay [2], the system named is endogenous IRE1α. The experiment in a line: IRE1α auto-phosphorylation immunoblot in INS-1 cells under ER stress. The conditions noted are these: ER stress (Tg). The procedure:
as §1, §2
For protein analysis, cells were lysed in M-PER buffer (Thermo Scientific) plus complete EDTA-free protease inhibitor (Roche) and phosphatase inhibitor cocktail (Sigma). The concentration of samples was determined using BCA Protein Assay (Thermo). […] Gels were run using MES buffer and transferred onto nitrocellulose transfer membrane using an XCell II™ Blot Module. Blocking, antibody incubation, and washing were done in PBS or TBS with 0.05% Tween-20 (v/v) and 5% (w/v) non-fat dry milk or BSA, or blocking buffer (Licor-Odyssey). Antibodies used were: mouse anti-Actin (Sigma-Aldrich); rabbit anti-cleaved Caspase-2 (Abcam); mouse anti-GAPDH, anti-c-Myc, anti-rabbit, anti-proinsulin, and anti-IRE1α (Santa Cruz Biotechnology); anti-phospho-IRE1α and anti-full length Caspase-2 (Novus Biologicals); and rabbit anti-Caspase-3, anti-JNK, anti-eIF2a, anti-phospho-eIF2a, and mouse anti-phospho-JNK (Cell Signaling). Antibody binding was detected by using near-infrared-dye-conjugated secondary antibodies (Licor) on the LI-COR Odyssey scanner or visualized by capturing on a CL-XPosure film using ECL SuperSignal West Dura Extended Duration Substrate (both from Thermo Scientific).

Regarding `O=S(=O)(N=Cc1c(O)ccc2ccccc12)c1cccs1` [STF-083010, N-[(2-Hydroxy-1-naphthalenyl)methylene]-2-thiophenesulfonamide, reference compound], the “XBP1 mRNA splicing (IRE1α RNase activity) in INS-1 cells” value in the assay on endogenous IRE1α [1] is listed as “inhibits XBP1 splicing in a dose-dependent manner”. Moreover, the “cytoprotection under Tm, single agent at the dose of the combination” value with INS-1 cells (STF-083010 1 M or KIRA6 50 nM alone) is listed as “sub-therapeutic individually”. In addition, the “apoptosis by Tm” value with INS-1 cells (STF-083010 at 50 µM) is “decreases”. Moreover, the “Ins1 mRNA decay under IRE1α hyperactivation” value in the assay on IRE1α (WT) was “decreases Ins1 mRNA decay under IRE1α hyperactivation”. For the same compound, the “endogenous IRE1α auto-phosphorylation in INS-1 cells” value with endogenous IRE1α [2] is given as “does not prevent IRE1α auto-phosphorylation”; in the assay on endogenous IRE1α [2] (listed as STF), “does not inhibit IRE1α auto-phosphorylation”.
